Results from patent US20080235824A1, “Use of Esterase Genes as Selectable Markers for Transforming Plant Cells” (priority 2006, published 2008).

Experiments:
[1] = test system: geranium petiole explants; assay: Survival of geranium petiole explants on regeneration medium with detergents; format: cell-based, Pelargonium X hortorum; details: for Survival of geranium petiole explants on regeneration medium: surviving/total explants
Protocol: Tween 20, a nonionic, fatty acid ester detergent, was evaluated as a potential selective agent for use in geranium (Pelargonium X hortorum) transformation experiments by placing geranium petiole explants into tissue culture with the addition to Tween 20 to the regeneration (shooting) medium normally used in geranium transformations (Robichon et al., 1995). Tween 20 was added at three concentrations: 1%, 0.1% and 0.01%. Each treatment consisted of 40 sterilized petiole explants placed in four tissue culture plates carrying 10 explants each. Survival of the explants was assayed weekly over four weeks on these media. Potential selective agent Span 20, also a nonionic, fatty acid ester detergent, was similarly evaluated, except that concentrations of 1%, 0.5% and 0.25% were evaluated over a twelve week period of time. The nonionic detergent Triton X-100, which is not a fatty acid ester detergent, was included for comparative purposes.

tomato leaf explants = assay: Survival of tomato leaf explants on regeneration medium with detergents; format: cell-based, Lycoperisicon esculentum; details: 1% detergent; for Survival of tomato leaf explants on regeneration medium: surviving/total explants
Protocol: Tween 20 was similarly evaluated as a potential selective agent for use in tomato (Lycoperisicon esculentum) transformations by placing tomato leaf explants placed into tissue culture; Tween 20 was added to tomato regeneration (shooting) medium normally used in tomato transformations (Riggs et al., 2001) at a 1% concentration. Each treatment consisted of 40 sterilized leaf explants placed in four tissue culture plates carrying 10 explants each. Survival of the explants was assayed weekly over four weeks on these media.

[2] = test system: tomato cultivar Micro-Tom leaf explants; assay: Agrobacterium transformation of tomato with selection on detergent or kanamycin; format: cell-based, Lycopersicon esculentum; details: for No. of independent calli forming shoots / No. of rooted shoots / Transformation frequency (%): tomato Micro-Tom, pIPG768 bovine PGE; for Transformation frequency (%): confirmed by PCR
From the text: Transgenic tomato (Lycopersicon esculentum) cultivar “Micro-Tom” plants were created using the Agrobacterium tumefaciens DNA delivery method [Riggs et al., 2001; Sun et al., 2006] using pIPG768. Selection was either on 1% Tween 20 added to both shoot and root regeneration media. As controls for comparative purposes, 100 micrograms/ml kanamycin was used.

[3] = test system: tobacco cultivar Xanthi leaf explants; assay: Agrobacterium transformation of tobacco with selection on detergent or kanamycin; format: cell-based, Nicotiana tabacum; details: for Transformation frequency (%): confirmed by PCR
From the text: Transgenic tobacco (Nicotiana tabacum) cultivar “Xanthi” plants were created using the Agrobacterium tumefaciens DNA delivery method [Horsch et al., 1985] using pIPG833. Selection was on 1% or on 0.05% Tween 20 added to both shoot and root regeneration media. As a control for comparative purposes, pIPG786 was used (carrying the nptII gene for kanamycin resistance) for transformation and 100 micrograms/ml kanamycin was used for selection.
Transgenic tobacco (Nicotiana tabacum) cultivar “Xanthi” plants were created using the Agrobacterium tumefaciens DNA delivery method [Horsch et al., 1985] using pIPG833. Selection was on 1% or on 0.05% Span 20 added to both shoot and root regeneration media.
Transgenic tobacco (Nicotiana tabacum) cultivar “Xanthi” plants were created using the Agrobacterium tumefaciens DNA delivery method [Horsch et al., 1985] using pIPG875. Selection was on 1% Span 20 added to the shoot regeneration medium and 0.05% Span 20 added to the root regeneration medium.

rooting tomato plants = assay: Root growth of rooting tomato plants on 1% Tween 20 medium; format: in vivo
From the text: The plant on the left, labeled “731”, was transformed using kanamycin selection and the kanamycin resistance gene driven by the 35S promoter on pIPG731 (ie., “empty” vector, without a lipase gene). The plant on the right, labeled “768”, was similarly transformed using kanamycin selection and the kanamycin resistance gene driven by the 35S promoter on pIPG768 (carrying a lipase gene). Both plants were rooted, kanamycin resistant transformants. Both plants, with roots removed to ca. 1-4 mm from the base, were transferred to rooting medium containing 1% Tween 20. After one week, the roots of both plants had grown to about the extent of the pIPG731 transformed plant, and the small ink marks were placed on the plates to indicate the extent of the root growth. Two weeks later, the roots on the plant transformed with pIPG731 had ceased to elongate and its roots started to appear brown at the growing tips, while the roots on the plant transformed with pIPG768 continued growing.
In order to test if the rooting medium inhibited or killed nontransgenic tomato that were rooting, regenerating nontransgenic tomato plants that were rooting, as well as transgenic tomato plants carrying pIPG678 that were rooting were placed on 1% Tween 20 medium.

[4] = test system: tobacco cultivar Xanthi leaf explants; assay: Agrobacterium transformation of tobacco with selection on detergent or kanamycin; format: cell-based, Nicotiana tabacum; details: pIPG833 bovine PGE, 0.5% Tween, 73 explants
[5] = 1% Tween in shoot and root media, Exp. 1, 253 explants
[6] = tobacco Xanthi, pIPG833 bovine PGE, 1% Tween, 73 explants

Substance: Tween 20
- Survival of geranium petiole explants on regeneration medium ([1]; 0.01% detergent, Week 1): 33/40
- Survival of geranium petiole explants on regeneration medium ([1]; 0.01% detergent, Week 2): 27/40
- Survival of geranium petiole explants on regeneration medium ([1]; 0.01% detergent, Week 3): 20/40
- Survival of geranium petiole explants on regeneration medium ([1]; 0.01% detergent, Week 4): 0/40
- Survival of geranium petiole explants on regeneration medium ([1]; 0.1% detergent, Week 1): 31/40
- Survival of geranium petiole explants on regeneration medium ([1]; 0.1% detergent, Week 2): 10/40
- Survival of geranium petiole explants on regeneration medium ([1]; 0.1% detergent, Week 3): 0/40
- Survival of geranium petiole explants on regeneration medium ([1]; 0.1% detergent, Week 4): 0/40
- Survival of geranium petiole explants on regeneration medium ([1]; 1% detergent, Week 1): 10/40
- Survival of geranium petiole explants on regeneration medium ([1]; 1% detergent, Week 2): 0/40
- Survival of geranium petiole explants on regeneration medium ([1]; 1% detergent, Week 3): 0/40
- Survival of geranium petiole explants on regeneration medium ([1]; 1% detergent, Week 4): 0/40
- Killing of geranium explants in tissue culture (in words) ([1]; summary of Table 1): completely killed all geranium explants in four weeks, even at the lowest level (0.01%) tested
- Survival of tomato leaf explants on regeneration medium (tomato leaf explants; Week 1): 8/40
- Survival of tomato leaf explants on regeneration medium (tomato leaf explants; Week 2): 8/40
- Survival of tomato leaf explants on regeneration medium (tomato leaf explants; Week 3): 3/40
- Survival of tomato leaf explants on regeneration medium (tomato leaf explants; Week 4): 0/40
- Killing of tomato explants in tissue culture (in words) (tomato leaf explants; summary of Table 2): completely killed all tomato explants in four weeks
- Share of tomato leaf material provided with bovine PGE on pIPG768 producing green shoots ([2]; regeneration medium with 1% Tween 20): nearly half
- Fate of tomato leaf material provided with empty vector control plasmid ([2]; regeneration medium with 1% Tween 20, 30 days of selection): either died or produced a small amount of brown callus that died
- No. of independent calli forming shoots [2, 5]: 25
- No. of rooted shoots [2, 5]: 25
- Transformation frequency (%) ([2]; 1% Tween, Exp. 1, 253 explants): 7%
- No. of independent calli forming shoots ([2]; 1% Tween, Exp. 2, 204 explants): 15
- No. of rooted shoots ([2]; 1% Tween, Exp. 2, 204 explants): 15
- Transformation frequency (%) ([2]; 1% Tween, Exp. 2, 204 explants): 4%
- No. of independent calli forming shoots ([2]; 1% Tween, Exp. 3, 275 explants): 48
- No. of rooted shoots ([2]; 1% Tween, Exp. 3, 275 explants): 48
- Transformation frequency (%) ([2]; 1% Tween, Exp. 3, 275 explants): 4%
- Tissue provided with pIPG833 producing shoots ([3]; regeneration medium with 0.05% detergent): 100%
- Tobacco leaf material provided with bovine PGE on pIPG833 producing green shoots ([3]; regeneration medium with 1% detergent): 16%
- Transformation efficiency ([3]; tobacco Xanthi, pIPG833, detergent at the 0.05% level): 6%
- No. of independent calli forming shoots ([3]; tobacco Xanthi, pIPG833 bovine PGE, 0.5% Tween, 73 explants): 73
- No. of independent calli forming shoots ([3]; tobacco Xanthi, pIPG833 bovine PGE, 1% Tween in shoot and root media, 73 explants): 12
- No. of rooted shoots [3, 6]: 12
- Transformation frequency (%) [3, 6]: 5%
- Transformation frequency (%) ([3]; tobacco Xanthi, pIPG833 bovine PGE, 1% Tween, 73 explants, listed as Tween): 5%
- Growth of transgenic tomato plants expressing bovine PGE (rooting tomato plants): did not affect growth
- Root growth of nontransgenic rooting tomato plants (rooting tomato plants): completely and almost immediately inhibited root growth
- No. of rooted shoots [4]: 73
- Transformation frequency (%) ([4]; confirmed by PCR): 6%
